Activity calls are given as the source filed them.
What was measured:
BJ [1] = experiment: BJ-TERT-LT-ST fibroblast viability loss – cell-based, RAS-independent, luminescence, dose response (AID 1935); type: functional; conditions: Homo sapiens;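 note: BJ fibroblasts immortalized with TERT plus LT and ST oncogenes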
[2] = DRD fibroblast viability loss – cell-based, non-viral oncogenic, luminescence, dose response (AID 1934); type: functional; conditions: Homo sapiens
[3] = Luminescence-based dose response cell-based high throughput screening assay for cytotoxic compounds using the IEC-6 intestinal epithelial cell line. [Related pubchem assays: 1858 (Summary AID.), 1825 (Counterscreen.), 1907 (Confirmation screen.)]; type: functional
BJ [4] = experiment: BJ-TERT fibroblast viability loss – cell-based, RAS-independent, luminescence, dose response (AID 1933); type: functional; conditions: Homo sapiens
[5] = alpha-synuclein stem-loop luciferase translation blockers – H4 neuroglioma cells, luminescence, confirmation (AID 1988); type: functional, cell-based
BJ [6] = experiment: cells; type: functional, cell-based; conditions: Homo sapiens
cells = type: functional, cell-based
[7] = luciferase reporter signal suppression in cells – H4 neuroglioma cells, luminescence, dose response (AID 1990); type: functional, cell-based
[8] = luciferase reporter signal reduction – luminescence, H4-C neuroglioblastoma cells, dose response (AID 2458); type: functional, cell-based;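 note: H4 neuroglioblastoma cells stably carrying a luciferase reporter gene fusion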
[9] = alpha-synuclein stem-loop translation blockers – luminescence, H4 neuroglioblastoma cells, dose confirmation, confirmation (AID 2454); type: functional, cell-based;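 note: H4 neuroglioblastoma cells carrying an alpha-synuclein 5'UTR luciferase reporter; potency for inhibition of the luciferase signal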
[10] = Luminescence Cell-Based Dose Response HTS to Identify Inhibitors of 5'UTR Stem-Loop Driven Prion Protein mRNA Translation in H4 Neuroglioblastoma Cells. [Related pubchem assays: 1827 (Project Summary), 1813 (Primary HTS)]; type: functional
[11] = target: Transitional endoplasmic reticulum ATPase (Homo sapiens, UniProt P55072, C522A); experiment: C522A mutant p97 ATPase inhibitors, dose response, counter-screen for p97 inhibitor project, biochemical, luminescence (AID 1544)
Chain of Transitional endoplasmic reticulum ATPase (Homo sapiens, UniProt P55072, C522A) (P55072 2-806 C522A limits assumed): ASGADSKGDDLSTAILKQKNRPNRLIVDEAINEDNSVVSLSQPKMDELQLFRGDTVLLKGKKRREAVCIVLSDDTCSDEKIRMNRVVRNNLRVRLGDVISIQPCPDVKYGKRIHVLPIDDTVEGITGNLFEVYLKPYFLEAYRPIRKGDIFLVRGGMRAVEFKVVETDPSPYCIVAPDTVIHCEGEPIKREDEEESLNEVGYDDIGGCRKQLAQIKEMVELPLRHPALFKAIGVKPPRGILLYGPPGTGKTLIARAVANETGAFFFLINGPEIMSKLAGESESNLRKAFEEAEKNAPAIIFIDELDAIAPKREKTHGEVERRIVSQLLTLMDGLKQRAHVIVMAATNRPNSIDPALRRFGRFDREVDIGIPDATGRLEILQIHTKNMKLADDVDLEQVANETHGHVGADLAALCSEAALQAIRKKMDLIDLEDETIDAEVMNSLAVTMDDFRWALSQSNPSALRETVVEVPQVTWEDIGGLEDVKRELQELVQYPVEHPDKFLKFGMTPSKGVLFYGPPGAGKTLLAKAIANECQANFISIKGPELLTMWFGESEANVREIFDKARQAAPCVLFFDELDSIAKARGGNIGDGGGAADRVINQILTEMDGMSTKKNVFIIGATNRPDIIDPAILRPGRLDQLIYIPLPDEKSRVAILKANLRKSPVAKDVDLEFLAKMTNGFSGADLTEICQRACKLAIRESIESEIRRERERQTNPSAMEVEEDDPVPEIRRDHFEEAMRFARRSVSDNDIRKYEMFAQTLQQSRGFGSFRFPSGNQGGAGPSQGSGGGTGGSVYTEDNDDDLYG

[12] = target: Induced myeloid leukemia cell differentiation protein Mcl-1 (Homo sapiens, UniProt Q07820); type: functional
Troponin, cardiac muscle = Troponin, cardiac muscle (Homo sapiens, UniProt P19429+P45379+P63316); experiment: compounds desensitizing RTF to calcium – biochemical, fluorescence, cardiac regulated thin filaments, triplicate IC50, dose response (AID 504742); type: protein-complex assay
[13] = target: Transitional endoplasmic reticulum ATPase (Homo sapiens, UniProt P55072); experiment: p97 ATPase inhibitors, dose response, biochemical (AID 1534)
[14] = Absorbance Microorganism-Based Dose Response Follow up to Identify Inhibitors of Streptokinase Expression. [Related pubchem assays: 1677 (Project Summary), 1915, 1914, 1902 (Retest at Dose), 1900 (Counter Screen), 1662 (Primary HTS)]
Streptococcus [15] = experiment: Luminescence Microorganism-Based Dose Response Follow up to Identify Compounds Cytotoxic to Streptococcus. [Related pubchem assays: 1677 (Project Summary), 1915, 1914, 1902 (Retest at Dose), 1900 (Counter Screen), 1662 (Primary HTS)]; type: functional, organism-based
Streptococcus [16] = experiment: GAS UMAA2166 growth inhibition – luminescence, BacTiterGlo, counter-screen for streptokinase expression inhibitor project, dose response (AID 1915); type: functional, organism-based;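 note: potency for reduction of bacterial viability or growth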
Streptokinase A [17] = target: T1, Streptokinase A (Streptococcus pyogenes serotype M1, UniProt P10520); experiment: Absorbance Microorganism-Based Dose Response Follow up to Identify Inhibitors of Streptokinase Expression. [Related pubchem assays: 1677 (Project Summary), 1915, 1914, 1902 (Retest at Dose), 1900 (Counter Screen), 1662 (Primary HTS)]; type: functional, Streptococcus pyogenes M1 GAS
T1 sequence (P10520 whole entry): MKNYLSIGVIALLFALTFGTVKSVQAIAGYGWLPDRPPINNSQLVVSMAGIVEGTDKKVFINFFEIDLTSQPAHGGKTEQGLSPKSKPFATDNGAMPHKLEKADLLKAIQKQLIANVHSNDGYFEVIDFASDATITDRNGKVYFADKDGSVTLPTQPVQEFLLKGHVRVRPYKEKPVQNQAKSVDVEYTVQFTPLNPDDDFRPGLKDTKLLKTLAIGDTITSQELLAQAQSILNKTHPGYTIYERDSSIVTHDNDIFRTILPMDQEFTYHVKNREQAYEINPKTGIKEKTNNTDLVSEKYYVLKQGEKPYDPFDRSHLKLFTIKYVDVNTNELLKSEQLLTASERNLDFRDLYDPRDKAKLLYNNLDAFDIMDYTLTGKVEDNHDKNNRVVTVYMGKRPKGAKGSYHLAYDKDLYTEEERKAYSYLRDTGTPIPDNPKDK

[18] = system: Streptococcus sp. 'group A'; experiment: Streptococcus pyogenes SK(-)GAS viability under kanamycin – luminescence, BacTiterGlo, confirmation, counter-screen for streptokinase expression inhibitor project, dose response (AID 1900); type: functional, organism-based
Streptokinase A [19] = target: T1, Streptokinase A; experiment: viability-normalized secreted streptokinase activity reduction – plasminogen activation absorbance, OD405, dose response (AID 1914); type: functional, Streptococcus pyogenes M1 GAS;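 note: secreted streptokinase activity via plasminogen activation per viability signal from cell pellet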
Streptococcus [20] = experiment: GAS bacterial viability reduction – luminescence, BacTiter-Glo, strain UMAA2166, counter-screen for streptokinase expression inhibitor project, dose response (AID 2477); type: functional, organism-based
HEK293 = experiment: Fluorescence-based counterscreen for potentiators or agonists of NPY-Y2: cell-based high-throughput dose response assay to identify inhibitors of cyclic nucleotide gated ion channel (CNGC) activity. In this assay, the parental HEK293 cell line transfected with a cyclic-nucleotide gated ion channel (CNGC)-based cAMP sensor is used to measure inhibition of isoproterenol-induced CNGC activity by test compound.; type: functional; conditions: Homo sapiens;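 note: stimulus is 1 µM isoproterenol at EC100 plus PDE inhibitor Ro 20-1724 at 25 µM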
[21] = NIH3T3 cell viability loss – ATP luminescence, mouse fibroblasts, counter-screen, dose response (AID 2010); type: functional, cell-based;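 note: cells exposed to compound for about 90 hours before reading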
[22] = target: T2, Neuropeptide Y receptor type 2 (Homo sapiens, UniProt P49146); experiment: Fluorescence-based cell-based high-throughput dose response assay for agonists of NPY-Y2. [Related pubchem assays: 1703 (Screening assay (CNGC inhibitors).), 1359 (Screening assay (NPY-Y2 potentiators or agonists).), 1304 (Screening assay (NPY-Y1 potentiators or agonists).), 1710 (Screening assay (NPY-Y2 agonists).), 1791 (Summary AID.)]; type: functional
T2 sequence (P49146 whole entry): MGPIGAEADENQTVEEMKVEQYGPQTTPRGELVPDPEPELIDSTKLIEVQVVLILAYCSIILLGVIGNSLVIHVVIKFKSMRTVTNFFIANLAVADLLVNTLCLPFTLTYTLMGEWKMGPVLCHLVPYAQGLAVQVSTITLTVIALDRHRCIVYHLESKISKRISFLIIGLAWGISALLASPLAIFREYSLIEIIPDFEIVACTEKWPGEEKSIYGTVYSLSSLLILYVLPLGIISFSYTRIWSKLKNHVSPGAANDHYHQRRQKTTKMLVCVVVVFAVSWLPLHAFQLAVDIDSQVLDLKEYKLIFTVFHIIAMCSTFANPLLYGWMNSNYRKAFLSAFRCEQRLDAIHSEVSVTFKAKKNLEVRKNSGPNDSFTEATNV

[23] = target: T3, Neuropeptide Y receptor type 1 (Homo sapiens, UniProt P25929); experiment: Fluorescence-based counterscreen for agonists of NPY-Y2: cell-based high-throughput dose response assay for agonists of NPY-Y1.; type: functional
T3 sequence (P25929 whole entry): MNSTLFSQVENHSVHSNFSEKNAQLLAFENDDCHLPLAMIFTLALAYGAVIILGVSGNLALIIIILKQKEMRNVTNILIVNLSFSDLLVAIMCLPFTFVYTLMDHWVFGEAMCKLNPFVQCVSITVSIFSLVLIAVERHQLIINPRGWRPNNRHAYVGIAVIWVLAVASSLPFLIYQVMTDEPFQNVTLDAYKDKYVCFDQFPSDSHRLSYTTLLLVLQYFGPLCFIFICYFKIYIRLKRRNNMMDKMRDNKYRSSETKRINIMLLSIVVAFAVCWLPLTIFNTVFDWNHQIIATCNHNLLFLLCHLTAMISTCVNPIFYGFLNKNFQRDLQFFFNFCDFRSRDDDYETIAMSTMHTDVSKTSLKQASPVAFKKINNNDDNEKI

[24] = viability loss in THP-1 monocytes – THP-1 cells, cytotoxicity control for Vif-APOBEC3G degradation inhibitor project, dose response (AID 1117359); type: functional; conditions: THP-1
[25] = HIV-1 Vif–A3G interaction blockers – biochemical, TR-FRET, GST-Vif 1-94, biotin-A3G peptide, dose response retest, primary screen (AID 1117319); type: functional;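 note: TR-FRET signal of purified GST-Vif binding a biotinylated A3G peptide; inhibitors lower the FRET signal by blocking Vif and A3G binding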
[26] = Trypanosoma cruzi growth suppression in host cells – NIH3T3 host cells, beta-gal luminescence, confirmation (AID 2044); type: functional, cell-based;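 note: intracellular parasites grown in NIH/3T3 mouse fibroblasts as host cells; luminescent beta-galactosidase reporter signal from transgenic T. cruzi replicating inside host cells; inhibitors lower the luminescence signal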
[27] = target: Lysosomal acid glucosylceramidase (Homo sapiens, UniProt P04062); experiment: Dose response cell-based high throughput screening assay to identify enhancers of beta-glucosidase activity. [Related pubchem assays: 784 ]; type: functional
Chain of Lysosomal acid glucosylceramidase (P04062 whole entry): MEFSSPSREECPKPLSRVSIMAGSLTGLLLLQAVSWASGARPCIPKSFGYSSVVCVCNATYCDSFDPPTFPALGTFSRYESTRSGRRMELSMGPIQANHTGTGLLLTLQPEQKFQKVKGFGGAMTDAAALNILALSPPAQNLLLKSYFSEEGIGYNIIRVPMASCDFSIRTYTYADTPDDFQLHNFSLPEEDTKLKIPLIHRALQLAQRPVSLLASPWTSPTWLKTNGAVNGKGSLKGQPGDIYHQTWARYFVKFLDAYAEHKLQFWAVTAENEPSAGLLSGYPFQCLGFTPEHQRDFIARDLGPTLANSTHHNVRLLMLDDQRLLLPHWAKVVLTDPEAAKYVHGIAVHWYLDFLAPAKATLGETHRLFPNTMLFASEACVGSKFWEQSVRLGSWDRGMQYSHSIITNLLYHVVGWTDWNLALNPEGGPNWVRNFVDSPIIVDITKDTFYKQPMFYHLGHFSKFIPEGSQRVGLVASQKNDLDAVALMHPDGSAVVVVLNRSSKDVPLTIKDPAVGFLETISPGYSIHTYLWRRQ

Cytochrome P450 2C9 = Cytochrome P450 2C9 (Homo sapiens, UniProt P11712)
Chain of Cytochrome P450 2C9 (P11712 whole entry): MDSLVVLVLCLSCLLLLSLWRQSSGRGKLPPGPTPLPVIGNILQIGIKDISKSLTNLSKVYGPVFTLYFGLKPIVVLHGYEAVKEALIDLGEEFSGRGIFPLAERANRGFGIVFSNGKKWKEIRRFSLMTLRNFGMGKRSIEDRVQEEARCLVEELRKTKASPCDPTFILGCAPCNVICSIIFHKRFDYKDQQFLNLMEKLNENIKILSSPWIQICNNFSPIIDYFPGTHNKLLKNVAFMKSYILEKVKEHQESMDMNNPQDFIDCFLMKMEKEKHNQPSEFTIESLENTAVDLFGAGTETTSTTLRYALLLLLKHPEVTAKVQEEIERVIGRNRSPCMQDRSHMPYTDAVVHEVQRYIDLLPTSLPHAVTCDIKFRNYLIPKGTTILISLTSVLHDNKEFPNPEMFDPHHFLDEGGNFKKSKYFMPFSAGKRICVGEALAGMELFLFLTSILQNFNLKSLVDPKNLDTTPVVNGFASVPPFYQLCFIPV

Cytochrome P450 2C19 = Cytochrome P450 2C19 (Homo sapiens, UniProt P33261); experiment: Cytochrome panel assay with activity outcomes. Panel member name: p450-cyp2c19 Compounds with AC50 equal or less than 10 uM are considered active; type: functional
Cytochrome P450 2D6 = Cytochrome P450 2D6 (Homo sapiens, UniProt P10635);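 note: CYP2D6 member of a cytochrome P450 panel assay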
Chain of Cytochrome P450 2D6 (P10635 whole entry): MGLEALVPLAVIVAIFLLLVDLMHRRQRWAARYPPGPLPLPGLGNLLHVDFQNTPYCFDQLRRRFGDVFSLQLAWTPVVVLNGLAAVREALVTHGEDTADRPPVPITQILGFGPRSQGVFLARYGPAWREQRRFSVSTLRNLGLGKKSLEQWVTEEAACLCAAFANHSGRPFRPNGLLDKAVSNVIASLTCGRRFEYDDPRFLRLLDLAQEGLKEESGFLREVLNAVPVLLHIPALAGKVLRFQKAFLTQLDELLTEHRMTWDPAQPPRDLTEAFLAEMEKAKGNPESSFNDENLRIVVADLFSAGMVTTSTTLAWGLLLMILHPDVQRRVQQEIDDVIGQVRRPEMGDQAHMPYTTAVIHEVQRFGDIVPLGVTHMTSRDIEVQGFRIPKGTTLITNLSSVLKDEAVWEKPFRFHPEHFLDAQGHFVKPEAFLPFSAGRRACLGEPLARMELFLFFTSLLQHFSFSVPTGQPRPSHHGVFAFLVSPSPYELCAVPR

Genome polyprotein = Genome polyprotein (dengue virus type 2, UniProt P29990); experiment: flavivirus cap methylation enzyme inhibition – biochemical, confirmation dose response, primary screen (AID 588689); type: functional
ORF 73 = ORF 73 (Human herpesvirus 8, UniProt O40947); experiment: KSHV LANA DNA-binding disruption – biochemical, fluorescence polarization, cherry-picked samples, dose response (AID 504725); parameters: species or system Human gammaherpesvirus 8;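 note: fluorescence polarization of a labeled DNA duplex reporting LANA DNA binding; potency is for inhibitors that block LANA binding to the DNA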
Chain of ORF 73 (O40947 whole entry): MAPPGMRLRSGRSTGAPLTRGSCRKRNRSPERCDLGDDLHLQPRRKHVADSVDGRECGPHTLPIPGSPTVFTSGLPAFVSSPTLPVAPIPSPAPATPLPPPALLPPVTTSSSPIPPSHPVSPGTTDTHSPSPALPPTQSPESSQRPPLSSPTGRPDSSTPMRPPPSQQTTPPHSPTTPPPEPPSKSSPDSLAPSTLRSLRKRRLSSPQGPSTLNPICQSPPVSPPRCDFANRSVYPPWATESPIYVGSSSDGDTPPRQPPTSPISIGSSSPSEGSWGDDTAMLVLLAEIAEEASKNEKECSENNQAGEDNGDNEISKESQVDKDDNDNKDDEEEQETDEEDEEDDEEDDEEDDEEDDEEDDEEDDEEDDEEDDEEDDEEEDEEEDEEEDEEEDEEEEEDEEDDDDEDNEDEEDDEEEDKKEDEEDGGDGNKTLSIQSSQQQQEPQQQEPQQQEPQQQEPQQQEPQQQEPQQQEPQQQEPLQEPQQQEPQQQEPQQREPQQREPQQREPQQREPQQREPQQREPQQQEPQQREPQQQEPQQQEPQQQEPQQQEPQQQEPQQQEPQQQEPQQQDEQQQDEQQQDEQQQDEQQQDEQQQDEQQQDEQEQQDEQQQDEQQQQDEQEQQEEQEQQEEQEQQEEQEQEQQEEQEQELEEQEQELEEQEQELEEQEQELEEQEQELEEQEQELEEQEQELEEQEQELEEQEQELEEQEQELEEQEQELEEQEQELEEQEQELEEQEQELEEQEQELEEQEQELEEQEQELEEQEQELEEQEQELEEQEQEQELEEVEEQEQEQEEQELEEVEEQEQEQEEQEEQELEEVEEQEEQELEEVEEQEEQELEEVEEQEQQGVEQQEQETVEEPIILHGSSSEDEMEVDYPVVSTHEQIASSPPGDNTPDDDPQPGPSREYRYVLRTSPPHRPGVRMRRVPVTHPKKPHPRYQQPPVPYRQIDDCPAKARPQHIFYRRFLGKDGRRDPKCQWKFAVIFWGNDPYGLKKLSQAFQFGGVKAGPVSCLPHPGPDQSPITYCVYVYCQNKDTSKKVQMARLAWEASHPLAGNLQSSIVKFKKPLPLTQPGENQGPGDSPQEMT

[28] = target: Glucose-6-phosphate 1-dehydrogenase (Homo sapiens, UniProt P11413); experiment: inhibition of Homo sapiens G6PD, dose series – biochemical, fluorescence, selectivity assay for P. falciparum G6PD inhibitor project, dose response (AID 504792); type: functional
Chain of Glucose-6-phosphate 1-dehydrogenase (P11413 whole entry): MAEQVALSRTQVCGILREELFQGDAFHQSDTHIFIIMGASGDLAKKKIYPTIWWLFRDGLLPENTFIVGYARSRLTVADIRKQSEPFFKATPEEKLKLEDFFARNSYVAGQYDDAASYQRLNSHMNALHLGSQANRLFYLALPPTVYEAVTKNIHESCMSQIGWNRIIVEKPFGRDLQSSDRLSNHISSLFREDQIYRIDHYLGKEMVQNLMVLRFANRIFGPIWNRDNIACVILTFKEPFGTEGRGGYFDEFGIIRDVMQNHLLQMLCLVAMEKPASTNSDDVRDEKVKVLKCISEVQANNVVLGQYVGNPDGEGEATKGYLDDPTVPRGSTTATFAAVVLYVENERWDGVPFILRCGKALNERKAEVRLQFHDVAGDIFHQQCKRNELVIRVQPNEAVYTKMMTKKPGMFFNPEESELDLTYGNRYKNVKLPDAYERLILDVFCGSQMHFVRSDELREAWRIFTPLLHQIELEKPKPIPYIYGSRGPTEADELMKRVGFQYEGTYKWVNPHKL

HeLa = experiment: viability loss in HeLa cells – cell-based, 24 h, cherry-picked samples, cytotoxicity control, dose response (AID 504726); type: functional; conditions: Homo sapiens;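 note: potency for cytotoxicity as loss of luminescence signal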
[29] = target: Metabotropic glutamate receptor 4 (Rattus norvegicus, UniProt P31423); experiment: Modulation of the Metabotropic Glutamate Receptor mGluR4: Rat PAM Potency. [Related pubchem assays (depositor defined):AID2437, AID2807]; type: functional
Chain of Metabotropic glutamate receptor 4 (P31423 whole entry): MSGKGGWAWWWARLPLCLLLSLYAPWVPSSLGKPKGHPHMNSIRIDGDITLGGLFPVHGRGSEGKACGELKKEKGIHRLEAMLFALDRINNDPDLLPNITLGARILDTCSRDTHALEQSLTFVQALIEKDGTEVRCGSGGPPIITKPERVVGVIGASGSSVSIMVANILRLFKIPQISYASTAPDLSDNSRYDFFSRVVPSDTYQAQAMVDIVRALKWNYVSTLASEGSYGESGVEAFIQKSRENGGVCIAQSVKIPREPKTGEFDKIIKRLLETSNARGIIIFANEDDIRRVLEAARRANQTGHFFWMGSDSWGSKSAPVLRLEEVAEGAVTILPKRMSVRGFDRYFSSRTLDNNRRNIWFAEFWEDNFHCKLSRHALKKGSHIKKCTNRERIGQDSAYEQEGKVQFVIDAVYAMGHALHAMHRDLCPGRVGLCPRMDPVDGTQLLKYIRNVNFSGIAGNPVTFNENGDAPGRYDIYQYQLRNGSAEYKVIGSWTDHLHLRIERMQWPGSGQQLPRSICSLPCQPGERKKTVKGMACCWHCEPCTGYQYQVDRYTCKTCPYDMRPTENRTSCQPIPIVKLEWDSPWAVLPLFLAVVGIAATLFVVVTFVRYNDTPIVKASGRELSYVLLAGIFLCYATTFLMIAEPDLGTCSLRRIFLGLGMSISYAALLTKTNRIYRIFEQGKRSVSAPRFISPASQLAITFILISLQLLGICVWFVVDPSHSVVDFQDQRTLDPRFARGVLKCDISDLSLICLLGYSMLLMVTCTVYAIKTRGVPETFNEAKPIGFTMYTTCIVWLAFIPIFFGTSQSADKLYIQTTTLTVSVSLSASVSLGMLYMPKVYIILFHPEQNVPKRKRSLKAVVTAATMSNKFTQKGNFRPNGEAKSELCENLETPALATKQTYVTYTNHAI

[30] = Luminescence-based counterscreen assay for KLF5 inhibitors: dose response cell-based high throughput screening assay to identify cytotoxic compounds using the IEC-6 intestinal epithelial cell line. [Related pubchem assays: 1700 (Primary screen.), 1834 (Confirmation screen.), 1858 (Summary AID.), 1905 (Counterscreen.)]; type: functional

COc1cc(-c2noc(C)c2/C=C/c2ccc(N)cc2)cc(OC)c1OC
EC50 (BJ [1]): 0.38 µM (inconclusive)
EC50 [2]: 0.362 µM (active)
IC50 [3]: 0.964 µM (active)
EC50 (BJ [4]): 0.344 µM (active)
EC50 [5]: < 0.1 µM (active)
EC50 (BJ [6]): 0.469 µM (inconclusive)
EC50 (cells): 0.277 µM (active)
EC50 [7]: < 0.1 µM (active)
EC50 [8]: 0.509 µM (active)
EC50 [9]: 0.335 µM (active)
EC50 [10]: < 0.1 µM (active)

O=C(O[C@@H]1OC2COC(=O)c3cc(O)c(O)c(O)c3-c3c(cc(O)c(O)c3O)C(=O)O[C@@H]([C@H]1O)[C@@H]2O)c1cc(O)c(O)c(O)c1
IC50 [11]: > 50 µM (not active)
IC50 [12]: 4.48 µM (active)
IC50 (Troponin, cardiac muscle): 0.677 µM (active)
IC50 [13]: 4.2 µM (active)

CCCOc1ccc(-c2nc(OC)c3ccccc3n2)cc1
EC50 [14]: 4.03 µM (active)
EC50 (Streptococcus [15]): > 500 µM (not active)
EC50 (Streptococcus [16]): > 150 µM (not active)
EC50 (Streptokinase A [17]): 3.83 µM (active)
EC50 [18]: 17.9 µM (active)
EC50 (Streptokinase A [19]): 6.02 µM (active)
EC50 (Streptococcus [20]): > 500 µM (not active)

COc1ccc(NC(=O)c2c(OC)cccc2OC)c(OC)c1
EC50 (HEK293): > 35.4 µM (not active)
EC50 [21]: > 60 µM (not active)
EC50 [22]: > 35.4 µM (not active)
EC50 [23]: > 35.4 µM (not active)
CC50 [24]: > 40 µM (active)
IC50 [25]: > 60.5 µM (active)
EC50 [26]: 3.06 µM (active)

Br.Brc1ccc(C2=Nn3c(nnc3-c3cccnc3)SC2)s1
EC50 [27]: > 50 µM (not active)
AC50 (Cytochrome P450 2C9): 22.4 µM (inconclusive)
AC50 (Cytochrome P450 2C19): inconclusive
AC50 (Cytochrome P450 2D6): 4.47 µM (inconclusive)

O=C1C=CC2=C3c4cc(O)c(O)cc4CC3(O)COC2=C1O (stereo not given)
IC50 (Genome polyprotein): 26.5 µM (active)
AC50 (ORF 73): 40.3 µM (active)
IC50 [28]: > 80 µM (inactive)
AC50 (HeLa): 179 µM (active)
IC50 (Troponin, cardiac muscle): 16.6 µM (inactive)

O=C(Nc1ccc(N2C(=O)[C@H]3CCCC[C@@H]3C2=O)c(Cl)c1)c1ccccn1
EC50 [29]: 0.65 µM (active)

O=C(N/N=C/c1cccc(Oc2ccccc2)c1)c1ccccc1F
IC50 [30]: 18.7 µM (not active)
